From ChEMBL document CHEMBL1133047, “Synthesis of neurotensin(9-13) analogues exhibiting enhanced human neurotensin receptor binding affinities” (Bioorg Med Chem Lett, 2000)
Where a SMILES comes first, the peptide text is derived from it. The star is where a group is joined. X1 = [N-]=[N+]=N[C@@H](CCCNCCN1CCNCC1)C(=O)*; X5 = [N-]=[N+]=N[C@@H](CCCNCCNCCN)C(=O)*; X2 = [N-]=[N+]=N[C@@H](CCCNCCCCN)C(=O)*; X4 = [N-]=[N+]=N[C@@H](CCCNCCCN)C(=O)*; X3 = [N-]=[N+]=N[C@@H](CCCNCCN)C(=O)*

Target: Neurotensin receptor type 1 (Homo sapiens, UniProt P30989)
Sequence (P30989 whole entry): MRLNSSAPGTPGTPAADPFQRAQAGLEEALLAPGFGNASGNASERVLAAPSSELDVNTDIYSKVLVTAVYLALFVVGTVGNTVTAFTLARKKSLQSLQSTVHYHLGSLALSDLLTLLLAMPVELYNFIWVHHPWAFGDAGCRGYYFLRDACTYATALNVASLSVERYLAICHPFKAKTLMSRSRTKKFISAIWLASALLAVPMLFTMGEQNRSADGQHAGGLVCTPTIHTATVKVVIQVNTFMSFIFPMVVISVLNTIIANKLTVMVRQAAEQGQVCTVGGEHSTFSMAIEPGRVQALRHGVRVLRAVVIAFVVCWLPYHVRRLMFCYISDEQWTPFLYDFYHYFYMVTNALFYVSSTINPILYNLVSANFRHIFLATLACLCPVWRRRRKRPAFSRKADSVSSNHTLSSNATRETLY
Experiment: Compound was evaluated for the binding affinity against human neurotensin receptor (hNTR)-1 expressed in CHO cells
Format: cell-based

Row | Structure (SMILES) | IC50 [nM]
1 | CC[C@H](C)[C@H](NC(=O)[C@H](Cc1ccc(O)cc1)NC(=O)[C@@H]1CCCN1C(=O)[C@H](CCCN)NC(=O)[C@@H](N)CCCN)C(=O)N[C@@H](CC(C)C)C(=O)O | 1.3
2 | CC[C@H](C)[C@H](NC(=O)[C@H](Cc1ccc(O)cc1)NC(=O)[C@@H]1CCCN1C(=O)[C@@H](N)CCCNC(=N)N)C(=O)N[C@@H](CC(C)C)C(=O)O | 19
3 | CC[C@H](C)[C@H](NC(=O)[C@H](Cc1ccc(O)cc1)NC(=O)[C@@H]1CCCN1C(=O)[C@H](CCCNCCN1CCNCC1)N=[N+]=[N-])C(=O)N[C@@H](CC(C)C)C(=O)O (X1-PYIL-OH) | 28
4 | CC[C@H](C)[C@H](NC(=O)[C@H](Cc1ccc(O)cc1)NC(=O)[C@@H]1CCCN1C(=O)[C@H](CCCNCCCCN)N=[N+]=[N-])C(=O)N[C@@H](CC(C)C)C(=O)O (X2-PYIL-OH) | 9.3
5 | CC[C@H](C)[C@H](NC(=O)[C@H](Cc1ccc(O)cc1)NC(=O)[C@@H]1CCCN1C(=O)[C@H](CCCNCCN)N=[N+]=[N-])C(=O)N[C@@H](CC(C)C)C(=O)O (X3-PYIL-OH) | 14.7
6 | CC[C@H](C)[C@H](NC(=O)[C@H](Cc1ccc(O)cc1)NC(=O)[C@@H]1CCCN1C(=O)[C@H](CCCNCCCN)N=[N+]=[N-])C(=O)N[C@@H](CC(C)C)C(=O)O (X4-PYIL-OH) | 3.9
7 | CC[C@H](C)[C@H](NC(=O)[C@H](Cc1ccc(O)cc1)NC(=O)[C@@H]1CCCN1C(=O)[C@H](CCCNCCNCCN)N=[N+]=[N-])C(=O)N[C@@H](CC(C)C)C(=O)O (X5-PYIL-OH) | 8.8
